The values that follow come from patent US20240247035A1, “STAPLED ANTIMICROBIAL PEPTIDES (STAMPS) AND USES THEREOF” (Lytica Therapeutics, Inc., priority 2021, published 2024).

One data set relates to A. baumannii. It is filed as cell-based, Acinetobacter baumannii. The following applies: 20-24 hours at 37° C., no visible bacterial growth. How it is done: (§1) Antimicrobial Activity Assay: The following microbroth dilution protocol was adapted from CLSI to determine the minimum inhibitory concentration (MIC) of StAMPs. Briefly, Mueller-Hinton broth (MHB) or cation-adjusted Mueller-Hinton broth (MHB II) was prepared and autoclaved. Then, a colony of bacterial cells was picked and grown overnight in broth at 37° C. and then diluted and allowed to grow again for 3-4 hours. Serial dilutions of peptide stocks in water (10 μl) were prepared using clear round-bottom polypropylene 96-well plates. Then 90 μl of bacteria in broth was added to give a final inoculum of 5×10^5 CFU/ml. The plates were then covered with porous tape to reduce evaporation and incubated for 20-24 hours at 37° C. The MIC was the minimum peptide concentration at which no visible bacterial growth was observed.

Another data set relates to K. pneumoniae. It is filed as cell-based, Klebsiella pneumoniae. The following applies: 20-24 hours at 37° C., no visible bacterial growth. The protocol:
as §1

Another data set relates to P. aeruginosa. It is filed as cell-based, Pseudomonas aeruginosa. The conditions noted are these: 20-24 hours at 37° C., no visible bacterial growth. The protocol:
as §1

Data set [1] is described as follows: 48 hours cytotoxicity assay (CellTiter-Glo), liver toxicity. The conditions noted are these: human. It is filed as cell-based. The method in brief: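 HepG2 cells (EMEM, 10% FBS) attached 4 h, then exposed to serial dilutions of StAMPs (from 5 mg/mL water stock) or vehicle for 48 h at 37° C. Viability read by CellTiter-Glo luminescence after 10 min at room temperature.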

The next data set deals with S. aureus. It is filed as cell-based, Staphylococcus aureus. The conditions noted are these: 20-24 hours at 37° C., no visible bacterial growth. The protocol:
as §1

A short description of data set [2]: 90 minute cytotoxicity assay (LDH release), renal toxicity. It is filed as cell-based. The following applies: human. The method in brief: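 RPTEC in growth-factor-supplemented MEM were exposed overnight-plated to serial dilutions of StAMPs (from 5 mg/mL water stock) or vehicle for 90 min at 37 °C. Released LDH in medium was measured with LDH reagent for 10 min, absorbance at 490 nm.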

In another data set the test system is E. coli. It is filed as cell-based, Escherichia coli. The conditions noted are these: 20-24 hours at 37° C., no visible bacterial growth. How it is done: as §1

Converted amounts (≈) assume the structure as drawn. Like-named read-outs stand apart in the source and are kept apart here. Bridge positions count the residues as written; N and C are the ends. Square brackets hold non-standard residues; d marks the D form. Peptide text beside a SMILES is read from it. Phe(4-tBu) = CC(C)(C)c1ccc(C[C@H](N)C(=O)O)cc1; S5 = C=CCCC[C@](C)(N)C(=O)O

For the compound `CC[C@H](C)[C@@H]1NC(=O)[C@@](C)(NC(=O)[C@H](CC(C)C)NC(=O)[C@H](CC(N)=O)NC(=O)[C@H](CCCCN)NC(=O)[C@H](CCCCN)NC(=O)[C@H](CCCCN)NC(=O)[C@H](CCCCN)NC(=O)CNC(=O)[C@H](CCCCN)NC(=O)[C@]2(C)CCCC=CCCC[C@](C)(NC(=O)CN)C(=O)N[C@@H](Cc3ccccc3)C(=O)N[C@@H](CO)C(=O)N[C@@H](CCCCN)C(=O)N2)CCCC=CCCC[C@@](C)(C(=O)N[C@@H](CCCCN)C(=O)NCC(N)=O)NC(=O)CNC(=O)[C@H](CO)NC1=O` [compound 28] (H-G[S5]FSK[S5]KGKKKKNL[S5]ISG[S5]KG-NH2; staple 2-6, 15-19), the “Minimum Inhibitory Concentration (MIC) A. baumannii” value in the data set on A. baumannii turned out to be 6 µg/mL. Further, in the data set on K. pneumoniae, the “Minimum Inhibitory Concentration (MIC) K. pneumoniae” value is above 64 µg/mL. Moreover, the “Minimum Inhibitory Concentration (MIC) P. aeruginosa” value with P. aeruginosa was 6 µg/mL. Further, the IC50 at 48 hours in data set [1] (48 hours of incubation, CellTiter-Glo, read-out: Inhibitory Concentration at 50% Cytotoxicity (IC50) Human Liver Cells (HepG2)) was above 200 µg/mL. The “Minimum Inhibitory Concentration (MIC) S. aureus” value in the data set on S. aureus was above 64 µg/mL. Also, the IC50 at 90 min in data set [2] (90 minutes of incubation, LDH, read-out: Inhibitory Concentration at 50% Cytotoxicity (IC50) Human Renal Proximal Tubule Epithelial Cells (RPTEC)) was above 200 µg/mL. Also, the “Minimum Inhibitory Concentration (MIC) E. coli” value in the data set on E. coli was found to be 64 µg/mL.
In data set [1], `CC[C@H](C)[C@H](NC(=O)[C@H](CCCCN)NC(=O)[C@H](CCCCN)NC(=O)CNC(=O)[C@H](CCCCN)NC(=O)[C@]1(C)CCCC=CCCC[C@](C)(NC(=O)CN)C(=O)N[C@@H](CCCCN)C(=O)N[C@@H](CO)C(=O)N[C@@H](CCCCN)C(=O)N1)C(=O)N[C@@H](CCCCN)C(=O)N[C@@H](CC(N)=O)C(=O)N[C@@H](CC(C)C)C(=O)N[C@@]1(C)CCCC=CCCC[C@@](C)(C(=O)N[C@@H](CCCCN)C(=O)NCC(N)=O)NC(=O)[C@H](CCCCN)NC(=O)[C@H](CO)NC(=O)[C@H]([C@@H](C)CC)NC1=O` [compound 5] (H-G[S5]KSK[S5]KGKKIKNL[S5]ISK[S5]KG-NH2; staple 2-6, 15-19) came in with an IC50 at 48 hours of 100 µg/mL (≈ 42.7 µM). In data set [2], this compound came in with an IC50 at 90 min of 180 µg/mL (≈ 76.9 µM).
In turn, `CC[C@H](C)[C@H](NC(=O)[C@H](CCCCN)NC(=O)[C@H](CCCCN)NC(=O)CNC(=O)[C@H](CCCCN)NC(=O)[C@]1(C)CCCC=CCCC[C@](C)(NC(=O)CN)C(=O)N[C@@H](CCCCN)C(=O)N[C@@H](CO)C(=O)N[C@@H](CCCCN)C(=O)N1)C(=O)N[C@@H](CCCCN)C(=O)N[C@@H](CC(N)=O)C(=O)N[C@@H](CC(C)C)C(=O)N[C@@]1(C)CCCC=CCCC[C@@](C)(C(=O)N[C@@H](CCCCN)C(=O)N[C@@H](CC(N)=O)C(N)=O)NC(=O)CNC(=O)[C@H](CO)NC(=O)[C@H](Cc2ccc(C(C)(C)C)cc2)NC1=O` [compound 20] (H-G[S5]KSK[S5]KGKKIKNL[S5][Phe(4-tBu)]SG[S5]KN-NH2; staple 2-6, 15-19) yielded an IC50 at 48 hours in data set [1] of 29 µg/mL (≈ 12 µM). This compound also registered an IC50 at 90 min in data set [2] of 46 µg/mL (≈ 19 µM).
`CC[C@H](C)[C@H](NC(=O)[C@H](CCCCN)NC(=O)[C@H](CCCCN)NC(=O)CNC(=O)[C@H](CCCCN)NC(=O)[C@]1(C)CCCC=CCCC[C@](C)(NC(=O)CN)C(=O)N[C@@H](CCCCN)C(=O)N[C@@H](C(C)C)C(=O)N[C@@H](CCCCN)C(=O)N1)C(=O)N[C@@H](CCCCN)C(=O)N[C@@H](CC(N)=O)C(=O)N[C@@H](CC(C)C)C(=O)N[C@@]1(C)CCCC=CCCC[C@@](C)(C(=O)N[C@@H](CCCCN)C(=O)NCC(N)=O)NC(=O)CNC(=O)[C@H](CO)NC(=O)[C@H]([C@@H](C)CC)NC1=O` [compound 6] (H-G[S5]KVK[S5]KGKKIKNL[S5]ISG[S5]KG-NH2; staple 2-6, 15-19) yielded an IC50 at 48 hours in data set [1] of 200 µg/mL (≈ 87.6 µM). In data set [2], this compound yielded an IC50 at 90 min of 215 µg/mL (≈ 94.2 µM).
For `CC[C@H](C)[C@H](NC(=O)[C@H](CCCCN)NC(=O)[C@H](CCCCN)NC(=O)CNC(=O)[C@H](CCCCN)NC(=O)[C@]1(C)CCCC=CCCC[C@](C)(NC(=O)CN)C(=O)N[C@@H](Cc2ccccc2)C(=O)N[C@@H](CO)C(=O)N[C@@H](CCCCN)C(=O)N1)C(=O)N[C@@H](CCCCN)C(=O)N[C@@H](CC(N)=O)C(=O)N[C@@H](CC(C)C)C(=O)N[C@@H](CC(C)C)C(=O)N[C@@]1(C)CCCC=CCCC[C@@](C)(C(=O)NCC(N)=O)NC(=O)[C@H](CC(C)C)NC(=O)CNC(=O)[C@H](CO)NC1=O` [compound 36] (H-G[S5]FSK[S5]KGKKIKNLL[S5]SGL[S5]G-NH2; staple 2-6, 16-20), the IC50 at 48 hours in data set [1] came out at 67 µg/mL (≈ 29.5 µM). For the same compound, in data set [2], the IC50 at 90 min stood at 63 µg/mL (≈ 27.7 µM).
On to `CC[C@H](C)[C@H](NC(=O)[C@H](CCCCN)NC(=O)[C@H](CCCCN)NC(=O)CNC(=O)[C@H](CCCCN)NC(=O)[C@]1(C)CCCC=CCCC[C@](C)(NC(=O)CN)C(=O)N[C@@H](Cc2ccccc2)C(=O)N[C@@H](CO)C(=O)N[C@@H](CCCCN)C(=O)N1)C(=O)N[C@@H](CCCCN)C(=O)N[C@@H](CC(N)=O)C(=O)N[C@@]1(C)CCCC=CCCC[C@@](C)(C(=O)N[C@@H](CC(C)C)C(=O)N[C@@H](CCCCN)C(=O)NCC(N)=O)NC(=O)[C@H](CO)NC(=O)[C@H]([C@@H](C)CC)NC(=O)[C@H](CC(C)C)NC1=O` [compound 33] (H-G[S5]FSK[S5]KGKKIKN[S5]LIS[S5]LKG-NH2; staple 2-6, 14-18), for which the IC50 at 48 hours in data set [1] was found to be 13 µg/mL (≈ 5.54 µM). In data set [2], the IC50 at 90 min turned out to be 11 µg/mL (≈ 4.69 µM).
